Test results published in article PMC6631349 (Xenobiotica; the fate of foreign compounds in biological …, 2014).
Read-outs that look alike come from different tables or passages of the source.

How the values were obtained:
UGT2B7 = molecular target: T1, UGT2B7 (Homo sapiens, UniProt P16662); assay: UGT2B7 supersomes-catalyzed 4-MU glucuronidation inhibition; conditions: recombinant human UGT, mean of triplicate
T1 sequence (P16662 24-529): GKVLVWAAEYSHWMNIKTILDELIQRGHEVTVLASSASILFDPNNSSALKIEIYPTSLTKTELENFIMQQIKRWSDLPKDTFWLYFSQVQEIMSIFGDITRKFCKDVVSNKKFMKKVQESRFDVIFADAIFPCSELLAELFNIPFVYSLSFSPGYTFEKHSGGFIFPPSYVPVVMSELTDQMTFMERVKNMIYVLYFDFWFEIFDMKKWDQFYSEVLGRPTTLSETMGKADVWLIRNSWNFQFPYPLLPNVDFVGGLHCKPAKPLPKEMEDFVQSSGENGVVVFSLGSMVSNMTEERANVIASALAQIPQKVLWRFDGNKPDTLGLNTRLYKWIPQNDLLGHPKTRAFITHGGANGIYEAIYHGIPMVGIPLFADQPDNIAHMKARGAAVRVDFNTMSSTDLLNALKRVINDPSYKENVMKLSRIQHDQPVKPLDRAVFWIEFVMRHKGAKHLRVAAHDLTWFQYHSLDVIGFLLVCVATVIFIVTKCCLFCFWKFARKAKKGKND

UGT1A6 = molecular target: T2, UGT1A6 (Homo sapiens, UniProt P19224); conditions: for residual activity 1A6: recombinant human UGT, mean of triplicate; for inhibition percentage of UGT1A6 activity: 50 μM
T2 sequence (P19224 27-532): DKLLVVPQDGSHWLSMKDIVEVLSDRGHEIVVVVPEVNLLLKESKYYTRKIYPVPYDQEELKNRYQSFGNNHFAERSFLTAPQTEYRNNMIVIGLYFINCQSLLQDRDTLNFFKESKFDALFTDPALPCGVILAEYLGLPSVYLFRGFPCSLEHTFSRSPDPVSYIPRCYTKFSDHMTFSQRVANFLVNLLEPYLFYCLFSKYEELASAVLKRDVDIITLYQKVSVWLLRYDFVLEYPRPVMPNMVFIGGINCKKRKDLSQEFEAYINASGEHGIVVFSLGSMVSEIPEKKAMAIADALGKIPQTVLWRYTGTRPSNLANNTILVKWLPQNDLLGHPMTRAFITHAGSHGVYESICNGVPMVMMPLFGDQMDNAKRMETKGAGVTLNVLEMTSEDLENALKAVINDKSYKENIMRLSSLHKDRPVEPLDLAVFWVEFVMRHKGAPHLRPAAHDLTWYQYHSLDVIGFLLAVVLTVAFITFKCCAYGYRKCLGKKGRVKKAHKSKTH

UGT2B4 = molecular target: T3, UGT2B4 (Homo sapiens, UniProt P06133); assay: UGT2B4 supersomes-catalyzed 4-MU glucuronidation inhibition; conditions: recombinant human UGT, mean of triplicate
T3 sequence (P06133 24-528): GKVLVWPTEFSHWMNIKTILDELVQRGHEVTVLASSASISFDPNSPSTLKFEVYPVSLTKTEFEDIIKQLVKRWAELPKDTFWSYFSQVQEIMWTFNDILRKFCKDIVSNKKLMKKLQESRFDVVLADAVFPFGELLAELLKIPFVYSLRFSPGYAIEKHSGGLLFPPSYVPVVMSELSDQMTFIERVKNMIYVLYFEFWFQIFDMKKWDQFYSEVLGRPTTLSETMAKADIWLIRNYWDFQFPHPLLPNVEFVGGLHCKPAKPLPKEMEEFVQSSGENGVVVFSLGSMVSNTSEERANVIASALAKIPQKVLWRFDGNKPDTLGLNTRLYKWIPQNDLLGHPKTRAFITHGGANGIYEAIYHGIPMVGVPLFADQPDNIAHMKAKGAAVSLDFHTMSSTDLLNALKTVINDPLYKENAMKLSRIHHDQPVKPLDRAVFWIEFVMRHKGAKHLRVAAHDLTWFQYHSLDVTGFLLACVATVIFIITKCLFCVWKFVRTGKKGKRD

UGT1A3 = molecular target: T4, UGT1A3 (Homo sapiens, UniProt P35503); assay: UGT1A3 supersomes-catalyzed 4-MU glucuronidation inhibition; conditions: recombinant human UGT, mean of triplicate
T4 sequence (P35503 29-534): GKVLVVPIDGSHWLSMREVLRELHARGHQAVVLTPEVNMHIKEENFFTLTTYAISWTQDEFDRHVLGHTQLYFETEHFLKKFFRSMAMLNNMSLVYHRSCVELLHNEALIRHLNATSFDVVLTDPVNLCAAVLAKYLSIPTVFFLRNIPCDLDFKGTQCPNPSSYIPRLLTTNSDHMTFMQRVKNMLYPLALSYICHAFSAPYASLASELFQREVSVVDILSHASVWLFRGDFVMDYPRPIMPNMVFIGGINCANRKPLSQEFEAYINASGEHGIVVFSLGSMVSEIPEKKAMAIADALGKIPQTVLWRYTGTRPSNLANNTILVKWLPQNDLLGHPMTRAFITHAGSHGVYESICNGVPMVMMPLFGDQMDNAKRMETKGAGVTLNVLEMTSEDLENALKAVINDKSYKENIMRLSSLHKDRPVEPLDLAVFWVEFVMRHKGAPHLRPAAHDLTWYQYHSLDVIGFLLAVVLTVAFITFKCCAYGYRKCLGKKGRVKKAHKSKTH

UGT1A1 = molecular target: T5, UGT1A1 (Homo sapiens, UniProt P22309); assay: UGT1A1 supersomes-catalyzed 4-MU glucuronidation inhibition; conditions: recombinant human UGT, mean of triplicate
T5 sequence (P22309 26-533): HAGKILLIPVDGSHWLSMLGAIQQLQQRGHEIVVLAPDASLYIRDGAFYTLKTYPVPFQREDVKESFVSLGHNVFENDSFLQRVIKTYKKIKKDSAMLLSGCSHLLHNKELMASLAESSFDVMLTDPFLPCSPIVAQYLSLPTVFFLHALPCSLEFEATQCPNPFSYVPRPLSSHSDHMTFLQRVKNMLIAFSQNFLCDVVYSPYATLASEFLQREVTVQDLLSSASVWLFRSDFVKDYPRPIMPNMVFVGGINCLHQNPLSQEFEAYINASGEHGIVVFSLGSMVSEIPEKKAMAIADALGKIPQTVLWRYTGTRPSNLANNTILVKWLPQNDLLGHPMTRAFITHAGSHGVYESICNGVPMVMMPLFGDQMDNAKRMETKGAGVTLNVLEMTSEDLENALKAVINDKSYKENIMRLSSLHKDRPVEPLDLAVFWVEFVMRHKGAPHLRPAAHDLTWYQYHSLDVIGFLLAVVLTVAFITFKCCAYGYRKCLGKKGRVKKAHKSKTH

| Structure (SMILES) | residual activity 2B7 (UGT2B7; 50 μM PC components) [%] | residual activity 1A6 (UGT1A6; 50 μM PC components) [%] | residual activity 2B4 (UGT2B4; 50 μM PC components) [%] | residual activity 1A3 (UGT1A3; 50 μM PC components) [%] | residual activity 1A1 (UGT1A1; 50 μM PC components) [%] | residual activity 2B7 (UGT2B7; 50 μM LPC components) [%] | residual activity 1A6 (UGT1A6; 50 μM LPC components) [%] | residual activity 2B4 (UGT2B4; 50 μM LPC components) [%] | residual activity 1A3 (UGT1A3; 50 μM LPC components) [%] | residual activity 1A1 (UGT1A1; 50 μM LPC components) [%] | inhibition percentage of UGT1A6 activity (UGT1A6) [%] | inhibition kinetic type towards UGT1A6 (UGT1A6; Dixon and Lineweaver-Burk plots, 4-MU glucuronidation) |
| --- | --- | --- | --- | --- | --- | --- | --- | --- | --- | --- | --- | --- |
| CCCCCCCCCCCCC(=O)OC[C@H](COP(=O)([O-])OCC[N+](C)(C)C)OC(=O)CCCCCCCCCCCC [PC 13:0, 13:0] | 81.4 | 56.5 | 193.8 | 110.7 | 201.1 |  |  |  |  |  |  |  |
| CCCCCCCCCCC(=O)OC[C@H](COP(=O)([O-])OCC[N+](C)(C)C)OC(=O)CCCCCCCCCC [PC 11:0, 11:0] | 100.5 | 35.0 | 181.0 | 110.7 | 232.3 |  |  |  |  |  |  |  |
| CCCCCCCCCCCCCCCCC(=O)OC[C@@H](O)COP(=O)([O-])OCC[N+](C)(C)C [LPC 17:0] |  |  |  |  |  | 81.5 | 8.5 | 333.4 | 119.0 | 167.6 |  |  |
| CCCCCCCCC(=O)OC[C@H](COP(=O)([O-])OCC[N+](C)(C)C)OC(=O)CCCCCCCC [PC 9:0, 9:0] | 79.6 | 21.4 | 156.7 | 117.7 | 162.3 |  |  |  |  |  | 78.6 |  |
| CCCCCCCCCCCCCCCCCC(=O)OC[C@@H](O)COP(=O)([O-])OCC[N+](C)(C)C [LPC 18:0] |  |  |  |  |  | 39.3 | 4.3 | 280.4 | 72.4 | 160.5 |  | non-competitively inhibited |
| CCCCCCCCCC(=O)OC[C@H](COP(=O)([O-])OCC[N+](C)(C)C)OC(=O)CCCCCCCCC [PC 10:0, 10:0] | 86.2 | 23.2 | 168.4 | 107.4 | 197.9 |  |  |  |  |  | 76.8 |  |
| CCCCCCCC(=O)OCC(O)COP(=O)([O-])OCC[N+](C)(C)C (stereo not shown) [LPC 8:0] |  |  |  |  |  | 70.1 | 74.2 | 185.0 | 80.3 | 184.9 |  |  |
| CCCCCCCCCCCCCCCCCCCCCC(=O)OC[C@H](COP(=O)([O-])OCC[N+](C)(C)C)OC(=O)CCCCCCCCCCCCCCCCCCCCC [PC 22:0, 22:0] | 33.0 | 60.2 | 60.0 | 92.1 | 170.3 |  |  |  |  |  |  |  |
| CCCCCC(=O)OC[C@@H](O)COP(=O)([O-])OCC[N+](C)(C)C [LPC 6:0] |  |  |  |  |  | 70.0 | 72.7 | 183.6 | 84.4 | 176.7 |  |  |
| CCCCCCC(=O)OCC(O)COP(=O)([O-])OCC[N+](C)(C)C (stereo not shown) [LPC 7:0] |  |  |  |  |  | 73.8 | 71.0 | 183.5 | 80.4 | 174.9 |  |  |
| CCCCCCCCCCCCCCC(=O)OC[C@H](COP(=O)([O-])OCC[N+](C)(C)C)OC(=O)CCCCCCCCCCCCCC [PC 15:0, 15:0] | 51.7 | 55.0 | 191.3 | 103.4 | 210.1 |  |  |  |  |  |  |  |
| CCCCCCCCCCC(=O)OC[C@@H](O)COP(=O)([O-])OCC[N+](C)(C)C [LPC 11:0] |  |  |  |  |  | 78.0 | 65.7 | 217.6 | 75.9 | 167.3 |  |  |
| CCCCCCCC(=O)OC[C@H](COP(=O)([O-])OCC[N+](C)(C)C)OC(=O)CCCCCCC [PC 8:0, 8:0] | 71 | 25.6 | 173.1 | 119.1 | 155.6 |  |  |  |  |  | 74.4 |  |
| CCCCCCCCC(=O)OC[C@@H](O)COP(=O)([O-])OCC[N+](C)(C)C [LPC 9:0] |  |  |  |  |  | 76.2 | 67.2 | 179.1 | 79.6 | 179.6 |  |  |
| CCCCCCCCCCCC(=O)OC[C@@H](O)COP(=O)([O-])OCC[N+](C)(C)C [LPC 12:0] |  |  |  |  |  | 72.8 | 80.2 | 255.5 | 74.8 | 165.9 |  |  |
